In ChEMBL document CHEMBL3885861, “Open TG-GATES”:

Species: Rattus norvegicus
Experiment: Open TG-GATES - Regimen: Daily Repeat
Type: toxicity, organism-based, Sprague-Dawley
Parameters: regimen Daily Repeat, gender Male, age 6 weeks
Details: in vivo, po, 30 mg/kg, route gavage, dose level Low; for APTT / Bas / Eos / Fbg / Hb / Ht / Lym / MCH / MCHC / MCV / Mono / Neu / PT / Plat / RBC / Ret / WBC: tissue Blood; for KIDNEY_L / KIDNEY_R / KIDNEY_TOTAL: tissue Kidney; for LIVER: tissue Liver; for A/G / ALP / ALT / AST / BUN / CRE / Ca / Cl / DBIL / GLC / IP / K / LDH / Na / PL / RALB / TBIL / TC / TG / TP / gamma-GTP: tissue Plasma

In the case of `CC[C@H]1[C@@H]2C[C@H]3[C@@H]4N(C)c5ccccc5[C@]45C[C@@H]([C@@H]2[C@H]5O)N3[C@@H]1O` [AJMALINE], the TERMINAL_BW (72 h, time 3 day) is reported as 214.3 g, the APTT (72 h, time 3 day) is reported as 16.2 s and the Bas (72 h, time 3 day) is reported as 0%. For the same compound, the Eos (72 h, time 3 day) was 1.2%, the Fbg (72 h, time 3 day) was 210 mg/dL and the Hb (72 h, time 3 day) was 13 g/dL. It also gave a Ht (72 h, time 3 day) of 39.3%, a Lym (72 h, time 3 day) of 78% and an MCH (72 h, time 3 day) of 21.7 pg. It also gave an MCHC (72 h, time 3 day) of 33%, an MCV (72 h, time 3 day) of 65.7 fL and a Mono (72 h, time 3 day) of 8.4%. For the same compound, the Neu (72 h, time 3 day) was 12.8%, the PT (72 h, time 3 day) was 11.7 s and the Plat (72 h, time 3 day) was 118 x10_4/uL. For the same compound, the RBC (72 h, time 3 day) was 599 x10_4/ul, the Ret (72 h, time 3 day) was 8.9% and the WBC (72 h, time 3 day) was 93 x10_2/uL. It also gave a KIDNEY_L (72 h, time 3 day) of 0.9 g, a KIDNEY_R (72 h, time 3 day) of 0.9 g and a KIDNEY_TOTAL (72 h, time 3 day) of 1.8 g. The LIVER (72 h, time 3 day) was 10.4 g, the A/G (72 h, time 3 day) was 2.1 and the ALP (72 h, time 3 day) was 904.4 IU/L. It also gave an ALT (72 h, time 3 day) of 36.2 IU/L, an AST (72 h, time 3 day) of 66.6 IU/L and a BUN (72 h, time 3 day) of 18.2 mg/dL. The CRE (72 h, time 3 day) was 0.5 mg/dL, the Ca (72 h, time 3 day) was 11.1 mg/dL and the Cl (72 h, time 3 day) was 102.6 meq/L. The DBIL (72 h, time 3 day) was 0.024 mg/dL, the GLC (72 h, time 3 day) was 198.2 mg/dL and the IP (72 h, time 3 day) was 7.2 mg/dL. The K (72 h, time 3 day) was 4.3 meq/L, the LDH (72 h, time 3 day) was 113 IU/L and the Na (72 h, time 3 day) was 139.6 meq/L. For the same compound, the PL (72 h, time 3 day) was 141.4 mg/dL, the RALB (72 h, time 3 day) was 3.8 g/dL and the TBIL (72 h, time 3 day) was 0.3 mg/dL. It also gave a TC (72 h, time 3 day) of 78.2 mg/dL, a TG (72 h, time 3 day) of 85 mg/dL and a TP (72 h, time 3 day) of 5.6 g/dL. The gamma-GTP (72 h, time 3 day) was 0.8 IU/L, the TERMINAL_BW ([…], time 7 day) was 248 g and the TERMINAL_BW ([…], time 14 day) was 297.8 g. It also gave a TERMINAL_BW ([…], time 28 day) of 375.4 g, an APTT ([…], time 7 day) of 17 s and a Bas ([…], time 7 day) of 0%. The Eos ([…], time 7 day) was 1.2%, the Fbg ([…], time 7 day) was 229.4 mg/dL and the Hb ([…], time 7 day) was 13 g/dL. For the same compound, the Ht ([…], time 7 day) was 39.1%, the Lym ([…], time 7 day) was 75.4% and the MCH ([…], time 7 day) was 21.4 pg. The MCHC ([…], time 7 day) was 33.3%, the MCV ([…], time 7 day) was 64.2 fL and the Mono ([…], time 7 day) was 10.2%. It also gave a Neu ([…], time 7 day) of 13.6%, a PT ([…], time 7 day) of 11.4 s and a Plat ([…], time 7 day) of 118.3 x10_4/uL. It also gave an RBC ([…], time 7 day) of 609.8 x10_4/ul, a Ret ([…], time 7 day) of 7% and a WBC ([…], time 7 day) of 106.1 x10_2/uL. The APTT ([…], time 14 day) was 16.7 s, the Bas ([…], time 14 day) was 0% and the Eos ([…], time 14 day) was 1%. For the same compound, the Fbg ([…], time 14 day) was 224 mg/dL, the Hb ([…], time 14 day) was 13.9 g/dL and the Ht ([…], time 14 day) was 41.9%. It also gave a Lym ([…], time 14 day) of 85%, an MCH ([…], time 14 day) of 20.3 pg and an MCHC ([…], time 14 day) of 33.1%. For the same compound, the MCV ([…], time 14 day) was 61.4 fL, the Mono ([…], time 14 day) was 4.2% and the Neu ([…], time 14 day) was 10%. The PT ([…], time 14 day) was 11.1 s, the Plat ([…], time 14 day) was 121.6 x10_4/uL and the RBC ([…], time 14 day) was 683.4 x10_4/ul. The Ret ([…], time 14 day) was 4.3%, the WBC ([…], time 14 day) was 138.2 x10_2/uL and the APTT ([…], time 28 day) was 17.2 s. The Bas ([…], time 28 day) was 0%, the Eos ([…], time 28 day) was 1% and the Fbg ([…], time 28 day) was 221.6 mg/dL. For the same compound, the Hb ([…], time 28 day) was 15.4 g/dL, the Ht ([…], time 28 day) was 45.5% and the Lym ([…], time 28 day) was 83%. For the same compound, the MCH ([…], time 28 day) was 20.4 pg, the MCHC ([…], time 28 day) was 33.8% and the MCV ([…], time 28 day) was 60.3 fL. The Mono ([…], time 28 day) was 4.6%, the Neu ([…], time 28 day) was 11.4% and the PT ([…], time 28 day) was 11.2 s. The Plat ([…], time 28 day) was 96.6 x10_4/uL, the RBC ([…], time 28 day) was 754.8 x10_4/ul and the Ret ([…], time 28 day) was 2.1%. For the same compound, the WBC ([…], time 28 day) was 110.2 x10_2/uL, the KIDNEY_L ([…], time 7 day) was 1 g and the KIDNEY_R ([…], time 7 day) was 1 g. For the same compound, the KIDNEY_TOTAL ([…], time 7 day) was 2 g, the KIDNEY_L ([…], time 14 day) was 1.2 g and the KIDNEY_R ([…], time 14 day) was 1.2 g. It also gave a KIDNEY_TOTAL ([…], time 14 day) of 2.3 g, a KIDNEY_L ([…], time 28 day) of 1.3 g and a KIDNEY_R ([…], time 28 day) of 1.3 g. For the same compound, the KIDNEY_TOTAL ([…], time 28 day) was 2.7 g, the LIVER ([…], time 7 day) was 12 g and the LIVER ([…], time 14 day) was 13.8 g. It also gave an LIVER ([…], time 28 day) of 16.1 g, an A/G ([…], time 7 day) of 1.8 and an ALP ([…], time 7 day) of 975.8 IU/L. The ALT ([…], time 7 day) was 34.8 IU/L, the AST ([…], time 7 day) was 65.6 IU/L and the BUN ([…], time 7 day) was 20.2 mg/dL. The CRE ([…], time 7 day) was 0.5 mg/dL, the Ca ([…], time 7 day) was 11.4 mg/dL and the Cl ([…], time 7 day) was 104.4 meq/L. It also gave a DBIL ([…], time 7 day) of 0.012 mg/dL, a GLC ([…], time 7 day) of 196.8 mg/dL and an IP ([…], time 7 day) of 7.3 mg/dL. For the same compound, the K ([…], time 7 day) was 4.7 meq/L, the LDH ([…], time 7 day) was 119.6 IU/L and the Na ([…], time 7 day) was 141.4 meq/L. The PL ([…], time 7 day) was 160 mg/dL, the RALB ([…], time 7 day) was 3.8 g/dL and the TBIL ([…], time 7 day) was 0.3 mg/dL. The TC ([…], time 7 day) was 82 mg/dL, the TG ([…], time 7 day) was 123.2 mg/dL and the TP ([…], time 7 day) was 5.9 g/dL. For the same compound, the gamma-GTP ([…], time 7 day) was 1.4 IU/L, the A/G ([…], time 14 day) was 2.2 and the ALP ([…], time 14 day) was 942.2 IU/L. It also gave an ALT ([…], time 14 day) of 32.4 IU/L, an AST ([…], time 14 day) of 61 IU/L and a BUN ([…], time 14 day) of 20 mg/dL. It also gave a CRE ([…], time 14 day) of 0.5 mg/dL, a Ca ([…], time 14 day) of 10.9 mg/dL and a Cl ([…], time 14 day) of 105.2 meq/L. The DBIL ([…], time 14 day) was 0.01 mg/dL, the GLC ([…], time 14 day) was 201 mg/dL and the IP ([…], time 14 day) was 7.1 mg/dL. For the same compound, the K ([…], time 14 day) was 4.5 meq/L, the LDH ([…], time 14 day) was 104.8 IU/L and the Na ([…], time 14 day) was 141.4 meq/L. For the same compound, the PL ([…], time 14 day) was 157.6 mg/dL, the RALB ([…], time 14 day) was 3.9 g/dL and the TBIL ([…], time 14 day) was 0.3 mg/dL. For the same compound, the TC ([…], time 14 day) was 80 mg/dL, the TG ([…], time 14 day) was 106.8 mg/dL and the TP ([…], time 14 day) was 5.8 g/dL. It also gave a gamma-GTP ([…], time 14 day) of 1.8 IU/L, an A/G ([…], time 28 day) of 1.8 and an ALP ([…], time 28 day) of 659.2 IU/L. The ALT ([…], time 28 day) was 30.8 IU/L, the AST ([…], time 28 day) was 62.8 IU/L and the BUN ([…], time 28 day) was 19.6 mg/dL. For the same compound, the CRE ([…], time 28 day) was 0.6 mg/dL, the Ca ([…], time 28 day) was 10.5 mg/dL and the Cl ([…], time 28 day) was 105.2 meq/L. The DBIL ([…], time 28 day) was 0.008 mg/dL, the GLC ([…], time 28 day) was 198.2 mg/dL and the IP ([…], time 28 day) was 6.2 mg/dL. The K ([…], time 28 day) was 4.5 meq/L, the LDH ([…], time 28 day) was 109.6 IU/L and the Na ([…], time 28 day) was 142.4 meq/L. The PL ([…], time 28 day) was 158.2 mg/dL, the RALB ([…], time 28 day) was 3.9 g/dL and the TBIL ([…], time 28 day) was 0.3 mg/dL. The TC ([…], time 28 day) was 71.8 mg/dL, the TG ([…], time 28 day) was 190.2 mg/dL and the TP ([…], time 28 day) was 6.1 g/dL. The gamma-GTP ([…], time 28 day) was 1 IU/L.
